For orientation: half-life means the time in which the quantity being followed falls by half. As a reminder, the bioavailability is the share of a dose that reaches the circulation, judged against a reference dose that is usually intravenous.

Read-outs that look alike come from different tables or passages of the source.

One series has as its system NCI/ADR-RES. The series can be described thus: SRB cytotoxicity assay, P-gp over-expressing NCI/ADR-RES cells. The class given is cell-based, human. The settings on record: NCI/ADR-RES versus OVCAR-8. (In general: Sulforhodamine B stains cellular protein and so reports cell mass.)
The nature of series [1]: Metabolic stability in human liver microsomes. The settings on record: human, liver microsomes, pH 7.4. For orientation: Microsomes from liver hold many membrane-bound enzymes, among them those of drug oxidation.
The subject of the next series is HUVECs. The experiment in a line: Endothelial cell growth inhibition (SRB), HUVEC. The class given is cell-based, human.
Series [2] in a line: Metabolic stability in mouse liver microsomes. The class given is in vitro ADME. The settings on record: mouse, liver microsomes, pH 7.4, Table 20; read-out: Half life in Mouse liver microsome.
For the next series, the system named is WM-164 melanoma cells. The series can be described thus: Microtubule imaging (immunofluorescence) in WM-164 melanoma cells. The class given is cell-based, human. Particulars: 18 h. The source says: Primary antibody for tubulin and fluorescence-labeled secondary antibody were subsequently added to the cells. Cell nuclei were stained by DAPI. Whole Cell Stain Green was also applied to all cells. All images were acquired with an Olympus IX71 inverted fluorescence microscope (Olympus Corp., Tokyo, Japan) with overlays from separate images of tubulin (red), nuclei (blue), and whole cells (green).

The nature of series [3]: Metabolic stability in rat liver microsomes. The class given is in vitro ADME. The settings on record: rat, liver microsomes, pH 7.4; Table 20; read-out: Half life in Rat liver microsome.
Series [4] can be described thus: Metabolic stability in dog liver microsomes. The class given is in vitro ADME. The settings on record: dog, dog liver microsomes, pH 7.4; Table 20; read-out: Half life in Dog liver microsome.
Series [5] relates to T1, tubulin colchicine binding site.
T1 construct: […]
The experiment in a line: [3H]-colchicine competition-binding scintillation proximity assay.

The subject of a further series is B16-F1 melanoma cells. The series can be described thus: B16-F1 melanoma colony formation assay in soft agar. The class given is cell-based, mouse. The settings on record: 14 days. The method, then:
B16-F1 melanoma cells were plated at a colony-forming density (2000 cells per well on six-well plates) on top of 0.8% base agar. Cells were grown in 0.4% agar together with DMEM medium supplemented with fetal bovine serum and an antibiotic-antimycotic solution at 37° C. in an atmosphere of 95% air and 5% CO2. […] Compounds were added to the media from 1 mM DMSO stock solutions, and a corresponding dilution of DMSO was used as control. Cells were grown for 14 days. Plates were photographed, and the number of colonies was measured by Artek 880 Automated Colony Counter (Artek Systems Corporation, Farmingdale, NY).

For a further series, the system named is A375 cells. The series can be described thus: Cell cycle analysis (flow cytometry) in A375 cells. Particulars: 24 h. The class given is cell-based, human.
A short description of series [6]: Pharmacokinetic study in ICR mice. The settings on record: mouse, in vivo.
Another series concerns glioma cells. The experiment in a line: SRB cytotoxicity assay, glioma cells. Particulars: read-out: potency in glioma cells.
The nature of series [7]: Pharmacokinetic study in Sprague-Dawley rats. Particulars: rat, in vivo.
The subject of a further series is PC-3/TxR tumors. The settings on record: PC-3/TxR xenograft, b.i.d × 5/w, end point day 26.
Series [8] in a line: Permeability (drug-like properties). Particulars: mean from duplicate studies.
For the next series, the system named is PC-3. The series can be described thus: SRB cytotoxicity assay, PC-3 prostate cancer cells. The class given is cell-based, human. Particulars: Homo sapiens, PC-3; Table 16B; read-out: IC50 in PC3. The source says: Cells were stained with SRB solution.
Series [9] has as its system tubulin (colchicine, vinblastine and paclitaxel binding sites). The series can be described thus: Mass spectrometry competitive binding assay on tubulin. The source says:
MS competition binding assay. […] Each reaction was run in triplicate.

Series [10] is described as follows: Pharmacokinetic study in beagle dogs. Particulars: dog, in vivo.
A short description of the next series: in vivo. The settings on record: ICR, Sprague-Dawley, beagle, rat, plasma, po.
In a further series the test system is Porcine brain tubulin. The series can be described thus: In vitro microtubule polymerization assay (porcine brain tubulin). The class given is biochemical. The settings on record: 5 μM, at 15 min.
The test system of a further series is BCRP. The series can be described thus: in vitro. The settings on record: human.
Another series relates to PC-3 xenografts. The source says:
In vivo antitumor activity [tumor growth inhibition (% T/C), tumor growth delay (T-C value), and tumor cell kill (total log cell kill)].

A short description of series [11]: Rotarod test (in vivo neurotoxicity) in ICR mice. Also noted: species or system mouse. The settings on record: 1h 5 or 15 mg/kg, vinblastine 0.5 mg/kg, i.p. daily. Here is the method: Rotarod test. […] The rotarod test was performed twice a week.
For orientation: In the rotarod test animals must keep their balance on a rotating rod.

In the series on NCI/ADR-RES, `COc1cc(C(=NC#N)c2csc(-c3ccccc3)n2)cc(OC)c1OC` [2j, N-((2-phenylthiazol-4-yl)(3,4,5-trimethoxyphenyl)methylene)cyanamide] gave a Resistance factor of 0.4. The half-life at 0.5 μM in [1] was less than 5 min.

As for `COc1cccc2c1C(=O)c1c(O)c3c(c(O)c1C2=O)C[C@@](O)(C(=O)CO)C[C@@H]3O[C@H]1C[C@H](N)[C@H](O)[C@H](C)O1` [doxorubicin], the “times more active against endothelial cells than against cancer cells” value in the series on HUVECs is “not specific to endothelial cells”. In the series on HUVECs (N = 3), this compound yielded an IC50 of 274 nM.

Turning to `COc1cc(C(=O)c2c[nH]c(-c3ccc(C)cc3)n2)cc(OC)c1OC` [12da, (2-(p-tolyl)-1H-imidazol-4-yl)(3,4,5-trimethoxyphenyl)methanone], the half-life at 0.5 μM was determined as 8 min in series [2], 28 min in series [3], 23 min in series [1] and 17 min in series [4]. Besides, in the series with WM-164 melanoma cells, the effect on microtubules entry is “microtubule fragmentation”. In addition, the “colchicine site binding in words” value in series [5] was “highest binding affinity”.

On to `COc1ccc(-c2nc(C(=O)c3ccc(F)cc3)c[nH]2)cc1` [12cb, (4-fluorophenyl)(2-(4-methoxyphenyl)-1H-imidazol-4-yl)methanone], for which the “concentration with effective inhibition of colony formation” value in the series on B16-F1 melanoma cells is reported as 20 nM. In addition, in the series on WM-164 melanoma cells, the effect on microtubules entry is listed as “microtubule fragmentation”. In the series with A375 cells, the “concentration from which most cells are arrested in the G2/M phase” value is listed as 200 nM.

`COc1cc(C(=O)c2csc(Nc3ccc4[nH]ccc4c3)n2)cc(OC)c1OC` [compound 55, (2-(1H-INDOL-5-YLAMINO)THIAZOL-4-YL)(3,4,5-TRIMETHOXYPHENYL)METHANONE]: in series [6], the “clearance in words, mice” value is recorded as “moderate clearance”. For the same compound, the figures for the IC50 with glioma cells and in the series on PC-3 were 22 nM and 28 nM, respectively. In series [7], the “clearance in words, rats” value is listed as “low clearance”. Also, the “Tumor size End” value in the series with PC-3/TxR tumors (PO 10 mpk) is listed as 1152 ± 433 mm^3; in the series with PC-3/TxR tumors (PO 30 mpk) it was 101 ± 19 mm^3. Besides, the “Papp(A→B) in CaCO-2 assay” value in series [8] is recorded as 99 10^−6 cm/s. The “competition for tubulin binding sites” value in series [9] is “competed effectively with colchicine”. In addition, in [10], the “clearance in words, dogs” value is on record as “moderate clearance”. The same compound came in with a bioavailability in “in vivo” of 24 to 36%. Further, the “inhibition of tubulin polymerization” value in the series on Porcine brain tubulin turned out to be 40%.

On to `CC[C@]1(O)C[C@@H]2CN(CCc3c([nH]c4ccccc34)[C@@](C(=O)OC)(c3cc4c(cc3OC)N(C)[C@H]3[C@@](O)(C(=O)OC)[C@H](OC(C)=O)[C@]5(CC)C=CCN6CC[C@]43[C@@H]65)C2)C1` [vinblastine, reference compound], for which the IC50 in the series with BCRP amounted to 25 ± 1 nM. The “% T/C” value in the series on PC-3 xenografts (0.5 mg/kg q2d, day 22) is recorded as 29%; in the series with PC-3 xenografts (Prostate (PC-3) xenograft, 0.5 mg/kg, q2d), 29%. Further, the “competition for tubulin binding sites” value in series [9] is given as “did not inhibit the colchicine-tubulin binding”. Also, the “time on the rotating rod versus vehicle group” value in series [11] was “gradually reduced the time”.

Turning to `CC(C)NCC(O)COc1cccc2ccccc12` (stereo not drawn) [Propranolol], in series [8], the “Papp(A→B) in CaCO-2 assay” value is listed as “(19) 10^−6 cm/s”.

(Values after US12187720B2, “Compounds for treatment of cancer” (ONCTERNAL THERAPEUTICS, INC., priority 2010, dated 2025).)
